Reference: US10381110B2, “Molecules” (University of Dundee, priority 2010, dated 2019)

Columns and labels:
[1] = target: T1, dopamine D4 (Homo sapiens, UniProt P21917); conditions: previously reported analogue; read-out: dopamine D4 Ki (literature); cited from earlier work
T1 sequence (P21917 1-419): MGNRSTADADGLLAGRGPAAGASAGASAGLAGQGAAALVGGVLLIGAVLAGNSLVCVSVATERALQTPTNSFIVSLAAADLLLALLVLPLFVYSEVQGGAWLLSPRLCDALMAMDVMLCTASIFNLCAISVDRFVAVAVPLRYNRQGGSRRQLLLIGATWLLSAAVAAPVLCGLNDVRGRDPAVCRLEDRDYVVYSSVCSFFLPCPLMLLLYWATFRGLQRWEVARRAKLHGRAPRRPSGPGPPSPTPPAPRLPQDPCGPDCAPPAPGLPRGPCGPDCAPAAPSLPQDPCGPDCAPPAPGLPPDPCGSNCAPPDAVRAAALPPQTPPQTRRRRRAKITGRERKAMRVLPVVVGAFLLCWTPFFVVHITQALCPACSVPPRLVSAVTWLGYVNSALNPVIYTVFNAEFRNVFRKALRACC

[2] = target: T2, dopamine D2 (Homo sapiens, UniProt P14416); conditions: read-out: dopamine D2 Ki (literature); previously assayed analogue; cited from earlier work
Target sequence in this assay (P14416 whole entry): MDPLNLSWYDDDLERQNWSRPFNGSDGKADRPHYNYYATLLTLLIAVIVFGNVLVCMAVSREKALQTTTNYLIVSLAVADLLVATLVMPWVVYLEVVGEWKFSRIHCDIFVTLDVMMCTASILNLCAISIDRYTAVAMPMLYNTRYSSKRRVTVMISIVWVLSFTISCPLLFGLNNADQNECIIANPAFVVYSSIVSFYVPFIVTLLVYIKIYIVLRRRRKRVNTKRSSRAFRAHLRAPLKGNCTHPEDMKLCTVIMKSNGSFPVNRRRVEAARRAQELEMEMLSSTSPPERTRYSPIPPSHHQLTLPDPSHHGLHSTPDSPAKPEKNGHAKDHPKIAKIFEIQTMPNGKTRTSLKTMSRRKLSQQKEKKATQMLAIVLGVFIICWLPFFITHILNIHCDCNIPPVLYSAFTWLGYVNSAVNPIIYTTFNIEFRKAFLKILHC

[3] = target: T3, 5HT1a (Homo sapiens, UniProt P08908); experiment: Secondary radioligand binding assay (Ki)
T3 sequence (P08908 1-422): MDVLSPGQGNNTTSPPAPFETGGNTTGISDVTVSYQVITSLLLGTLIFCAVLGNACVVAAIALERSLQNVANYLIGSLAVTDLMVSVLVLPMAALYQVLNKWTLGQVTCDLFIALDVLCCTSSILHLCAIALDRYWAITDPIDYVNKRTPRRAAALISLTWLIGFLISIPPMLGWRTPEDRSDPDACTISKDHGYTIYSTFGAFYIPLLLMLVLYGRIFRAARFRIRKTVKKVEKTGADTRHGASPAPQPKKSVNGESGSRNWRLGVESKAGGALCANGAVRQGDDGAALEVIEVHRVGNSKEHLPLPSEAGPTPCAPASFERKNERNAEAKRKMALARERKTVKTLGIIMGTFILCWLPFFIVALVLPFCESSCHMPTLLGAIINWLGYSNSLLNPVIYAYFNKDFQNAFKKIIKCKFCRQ
Description: (§1) Assay Buffer: Standard Binding Buffer (50 mM Tris-HCl, 10 mM MgCl2, 1 mM EDTA, pH 7.4)
(§2) Membrane Fraction Source: Transiently or stably transfected cell lines (e.g., HEK293, COS, CHO, NIH3T3)
(§3) Radioligand is diluted to five times the assay concentration (see Table 18) in Standard Binding Buffer. Typically, the assay concentration of radioligand is a value between one half the KD and the KD of a particular radioligand at its target. 50 μl aliquots of radioligand are dispensed into the wells of a 96-well plate containing 100 μl of Standard Binding Buffer. Then, duplicate 50 μl aliquots of the test and reference compound dilutions are added.
(§4) The 250 μl reactions are incubated at room temperature and shielded from light (to prevent photolysis of light-sensitive ligands) for 1.5 hours, then harvested by rapid filtration onto Whatman GF/B glass fiber filters pre-soaked with 0.3% polyethyleneimine using a 96-well Brandel harverster. Four rapid 500 μl washes are performed with chilled Standard Binding Buffer to reduce non-specific binding. Filters are placed in 6 ml scintillation tubes and allowed to dry overnight. The next day, 4 ml of EcoScint scintillation cocktail (National Diagnostics) are added to each tube. The tubes are capped, labeled, and counted by liquid scintillation counting. […] The filter mats are dried, then scintillant is melted onto the filters and the radioactivity retained on the filters is counted in a Microbeta scintillation counter.
(§5) Raw data (dpm) representing total radioligand binding (i.e. specific+non-specific binding) are plotted as a function of the logarithm of the molar concentration of the competitor (i.e. test or reference compound).

[4] = target: T4, α1A (Alpha1A) (Homo sapiens, UniProt P35348); experiment: Secondary radioligand binding assay (Ki)
T4 sequence (P35348 1-466): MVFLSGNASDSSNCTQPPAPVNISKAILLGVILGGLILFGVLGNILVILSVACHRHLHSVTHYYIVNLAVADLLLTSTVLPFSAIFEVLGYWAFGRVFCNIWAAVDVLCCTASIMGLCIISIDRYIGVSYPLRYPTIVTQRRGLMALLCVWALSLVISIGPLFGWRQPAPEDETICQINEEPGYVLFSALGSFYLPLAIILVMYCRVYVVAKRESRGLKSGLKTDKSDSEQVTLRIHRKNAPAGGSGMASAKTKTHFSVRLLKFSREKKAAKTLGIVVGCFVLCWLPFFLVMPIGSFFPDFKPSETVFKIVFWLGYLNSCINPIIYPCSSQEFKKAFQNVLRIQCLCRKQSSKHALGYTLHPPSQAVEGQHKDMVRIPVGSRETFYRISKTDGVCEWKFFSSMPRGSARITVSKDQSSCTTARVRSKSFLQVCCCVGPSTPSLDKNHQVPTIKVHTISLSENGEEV
Description: as §3, §4, §5
Adrenergic Receptors: α1A, α1B, α2A, α2B, α2C, β1, β2, β3
Membrane Fraction Source: Transiently or stably transfected cell lines (e.g. HEK293, COS, CHO, NIH3T3)
The method is carried out in the manner described for the serotonin receptor assay above, except where described below. Eleven dilutions (5× assay concentration) of the test and reference (see Table 20) compounds are prepared in the appropriate buffer by serial dilution, as previously described. Radioligand is diluted to five times the assay concentration (see Table 21) in the appropriate buffer.
The 250 μl reactions are incubated at room temperature and shielded from light (to prevent photolysis of light-sensitive ligands) for 1 hour (for α1 receptors, 40 min for α2 receptors, and 1.5 hours for β receptors), then harvested by rapid filtration onto Whatman GF/B glass fiber filters pre-soaked with 0.3% polyethyleneimine using a 96-well Brandel harverster. Four rapid 500-μl washes are performed with chilled distilled water (for α1 and β receptors) or 0.1% polyethyleneimine (for α2 receptors) to reduce non-specific binding. Filters are placed in 6 ml scintillation tubes and allowed to dry overnight and the samples are treated to obtain data as described above.

[5] = target: 5-HT2B (Homo sapiens, UniProt P41595); experiment: Secondary radioligand binding assay (Ki)
Description: as §1, §2, §3, §4, §5

[6] = target: 5-HT7 (Homo sapiens, UniProt P34969); experiment: Secondary radioligand binding assay (Ki)
Description: as §1, §2, §3, §4, §5

[7] = target: T5, Alpha1A (Homo sapiens, UniProt P35348); experiment: Primary radioligand binding assay (NIMH PDSP); conditions: primary radiobinding assay, [3H]Prazosin; further: test concentration or dose not given here
T5 sequence (P35348 1-466): T4 sequence (P35348 1-466)

[8] = target: T6, Alpha1B (Homo sapiens, UniProt P35368); experiment: Primary radioligand binding assay (NIMH PDSP); conditions: primary radiobinding assay, [3H]Prazosin; further: test concentration or dose not given here
T6 sequence (P35368 1-520): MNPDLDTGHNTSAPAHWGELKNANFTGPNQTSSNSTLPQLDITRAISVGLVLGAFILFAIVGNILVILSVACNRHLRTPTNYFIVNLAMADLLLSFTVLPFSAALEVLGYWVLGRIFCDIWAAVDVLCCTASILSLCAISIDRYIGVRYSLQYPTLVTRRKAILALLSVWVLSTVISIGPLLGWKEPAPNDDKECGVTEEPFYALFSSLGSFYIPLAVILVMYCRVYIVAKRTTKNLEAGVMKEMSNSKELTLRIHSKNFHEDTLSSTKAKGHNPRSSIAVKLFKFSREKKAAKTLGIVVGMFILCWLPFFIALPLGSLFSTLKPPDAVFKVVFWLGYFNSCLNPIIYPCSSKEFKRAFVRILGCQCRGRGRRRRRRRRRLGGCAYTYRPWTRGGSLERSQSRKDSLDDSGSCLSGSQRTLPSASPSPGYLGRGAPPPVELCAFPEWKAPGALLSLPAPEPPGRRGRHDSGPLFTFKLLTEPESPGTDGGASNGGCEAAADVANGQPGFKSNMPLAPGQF

[9] = target: T7, Alpha1D (Homo sapiens, UniProt P25100); experiment: Primary radioligand binding assay (NIMH PDSP); conditions: primary radiobinding assay, [3H]Prazosin
T7 sequence (P25100 1-572): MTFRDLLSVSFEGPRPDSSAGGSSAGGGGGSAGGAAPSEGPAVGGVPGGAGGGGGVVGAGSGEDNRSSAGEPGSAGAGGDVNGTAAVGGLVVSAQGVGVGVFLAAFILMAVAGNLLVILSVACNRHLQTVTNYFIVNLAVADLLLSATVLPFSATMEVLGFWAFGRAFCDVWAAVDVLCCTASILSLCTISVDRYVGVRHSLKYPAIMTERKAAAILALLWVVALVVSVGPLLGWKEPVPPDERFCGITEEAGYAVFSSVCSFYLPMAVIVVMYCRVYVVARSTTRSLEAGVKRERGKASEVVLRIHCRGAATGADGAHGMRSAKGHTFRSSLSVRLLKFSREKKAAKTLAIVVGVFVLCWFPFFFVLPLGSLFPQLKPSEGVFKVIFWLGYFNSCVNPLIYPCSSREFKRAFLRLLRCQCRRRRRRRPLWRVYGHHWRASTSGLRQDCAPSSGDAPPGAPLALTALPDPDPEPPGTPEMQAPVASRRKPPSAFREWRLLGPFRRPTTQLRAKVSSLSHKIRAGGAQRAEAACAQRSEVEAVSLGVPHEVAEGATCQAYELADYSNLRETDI

[10] = target: dopamine D1 (Homo sapiens, UniProt P21728); experiment: Primary radioligand binding assay (NIMH PDSP); conditions: primary radiobinding assay, [3H]SCH233930; further: test concentration or dose not given here
[11] = target: T2, dopamine D2; experiment: Primary radioligand binding assay (NIMH PDSP); conditions: primary radiobinding assay, [3H]N-methylspiperone; on D4 (% inh): test concentration or dose not given here
Target sequence in this assay (P14416 whole entry, species assumed): as the sequence (P14416 whole entry) above

[12] = target: dopamine D3 (Homo sapiens, UniProt P35462); experiment: Primary radioligand binding assay (NIMH PDSP); conditions: primary radiobinding assay, N-methylspiperone; further: test concentration or dose not given here
[13] = target: dopamine D5 (Homo sapiens, UniProt P21918); experiment: Primary radioligand binding assay (NIMH PDSP); conditions: primary radiobinding assay, [3H]SCH233930; further: test concentration or dose not given here
[14] = target: T1, dopamine D4; experiment: Primary radioligand binding assay (NIMH PDSP); conditions: primary radiobinding assay, N-methylspiperone; on D4 (% inh): test concentration or dose not given here

Sequence of 5-HT2B (P41595 whole entry, species assumed): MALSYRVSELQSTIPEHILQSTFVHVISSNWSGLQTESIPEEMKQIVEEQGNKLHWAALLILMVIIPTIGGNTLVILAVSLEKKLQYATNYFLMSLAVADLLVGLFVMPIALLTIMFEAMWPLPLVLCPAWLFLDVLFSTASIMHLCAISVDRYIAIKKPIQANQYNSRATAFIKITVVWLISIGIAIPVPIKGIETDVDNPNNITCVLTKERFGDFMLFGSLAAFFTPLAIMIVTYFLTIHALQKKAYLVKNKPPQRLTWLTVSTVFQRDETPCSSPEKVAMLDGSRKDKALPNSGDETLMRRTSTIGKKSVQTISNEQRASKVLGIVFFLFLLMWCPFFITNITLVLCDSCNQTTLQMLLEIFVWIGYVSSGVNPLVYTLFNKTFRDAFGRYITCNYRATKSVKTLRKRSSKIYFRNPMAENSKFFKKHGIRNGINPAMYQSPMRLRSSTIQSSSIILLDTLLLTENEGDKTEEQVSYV
Sequence of dopamine D3 (P35462 whole entry): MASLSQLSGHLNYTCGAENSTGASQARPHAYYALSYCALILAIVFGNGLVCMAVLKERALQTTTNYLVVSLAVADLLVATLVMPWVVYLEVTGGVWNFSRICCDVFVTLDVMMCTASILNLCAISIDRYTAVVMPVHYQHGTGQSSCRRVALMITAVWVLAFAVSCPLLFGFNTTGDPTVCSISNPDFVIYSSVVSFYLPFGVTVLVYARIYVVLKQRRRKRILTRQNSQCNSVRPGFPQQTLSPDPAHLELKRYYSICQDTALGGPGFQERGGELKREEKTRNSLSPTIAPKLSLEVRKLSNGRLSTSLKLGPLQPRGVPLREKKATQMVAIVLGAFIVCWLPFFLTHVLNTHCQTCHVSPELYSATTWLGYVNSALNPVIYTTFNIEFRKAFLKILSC
Sequence of dopamine D5 (P21918 whole entry): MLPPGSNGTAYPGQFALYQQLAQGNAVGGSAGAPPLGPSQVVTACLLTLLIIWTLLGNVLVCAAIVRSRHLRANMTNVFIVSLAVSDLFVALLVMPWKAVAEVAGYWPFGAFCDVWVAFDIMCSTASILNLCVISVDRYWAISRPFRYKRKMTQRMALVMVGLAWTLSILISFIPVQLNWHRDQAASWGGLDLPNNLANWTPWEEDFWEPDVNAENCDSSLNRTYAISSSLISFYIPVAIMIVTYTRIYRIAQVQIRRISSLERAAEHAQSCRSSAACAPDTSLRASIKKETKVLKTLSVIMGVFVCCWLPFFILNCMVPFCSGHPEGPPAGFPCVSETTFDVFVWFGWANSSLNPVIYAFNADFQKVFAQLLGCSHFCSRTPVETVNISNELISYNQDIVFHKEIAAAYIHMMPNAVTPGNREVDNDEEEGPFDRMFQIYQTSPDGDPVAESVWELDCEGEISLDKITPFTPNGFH
Sequence of dopamine D1 (P21728 whole entry): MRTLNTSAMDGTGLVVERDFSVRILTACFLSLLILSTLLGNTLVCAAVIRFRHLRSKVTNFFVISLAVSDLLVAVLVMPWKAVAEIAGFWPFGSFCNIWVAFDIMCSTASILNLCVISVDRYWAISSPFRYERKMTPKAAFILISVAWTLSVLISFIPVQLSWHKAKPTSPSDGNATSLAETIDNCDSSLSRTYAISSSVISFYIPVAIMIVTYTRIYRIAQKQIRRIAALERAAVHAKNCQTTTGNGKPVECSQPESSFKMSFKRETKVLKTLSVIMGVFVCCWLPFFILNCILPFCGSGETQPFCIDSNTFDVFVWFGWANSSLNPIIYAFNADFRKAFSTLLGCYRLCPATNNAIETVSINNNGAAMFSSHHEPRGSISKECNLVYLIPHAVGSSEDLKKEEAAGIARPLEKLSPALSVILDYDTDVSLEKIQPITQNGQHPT
Sequence of 5-HT7 (P34969 whole entry, species assumed): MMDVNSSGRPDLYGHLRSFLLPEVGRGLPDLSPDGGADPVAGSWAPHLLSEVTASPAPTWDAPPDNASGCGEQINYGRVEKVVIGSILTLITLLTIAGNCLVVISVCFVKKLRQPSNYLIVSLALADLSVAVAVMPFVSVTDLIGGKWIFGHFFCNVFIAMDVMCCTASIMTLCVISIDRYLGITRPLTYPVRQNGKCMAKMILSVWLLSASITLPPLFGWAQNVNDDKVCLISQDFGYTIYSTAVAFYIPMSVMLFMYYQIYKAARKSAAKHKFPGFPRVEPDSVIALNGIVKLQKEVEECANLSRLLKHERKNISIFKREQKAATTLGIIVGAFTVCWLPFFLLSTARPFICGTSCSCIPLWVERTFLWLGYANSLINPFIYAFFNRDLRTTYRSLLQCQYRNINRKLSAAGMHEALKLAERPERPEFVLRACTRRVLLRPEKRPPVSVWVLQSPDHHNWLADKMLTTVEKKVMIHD

Structure (SMILES) | Ki [1] | Ki [2] | Ki [3] | Ki [4] | Ki [5] | Ki [6] | Alpha1A (% inh) [7] | Alpha1B (% inh) [8] | Alpha1D (% inh) [9] | D1 (% inh) [10] | D2 (% inh) [11] | D3 (% inh) [12] | D5 (% inh) [13] | D4 (% inh) [14]
O=C1c2ccccc2CN1CCCCN1CCN(c2ccccc2)CC1 [2-(4-(4-Phenyl-1-piperazinyl)butyl)-1-isoindolinone] | 134 nM | 319 nM | – | – | – | – | – | – | – | – | – | – | – | –
CC1Cc2ccccc2N1C(=O)CN1CCN(c2ccccc2)CC1 (stereo not drawn) [STT-00185641] | – | – | 8430 nM | 2010 nM | 1450 nM | 2820 nM | 64.8 % inh | −19.8 % inh | 31.1 % inh | −1 % inh | 2 % inh | 51 % inh | 18 % inh | –
COc1cc2c(cc1OC)C(=O)C(CC1CCN(Cc3ccccc3)CC1)C2 (stereo not drawn) [donepezil, reference compound] | – | – | – | – | – | – | – | – | – | – | 18.6 % inh | – | – | 89.2 % inh
